Data as given in patent US3989837A, “Pharmaceutical compositions” (Chinoin Gyogyszer-es Vegyeszeti Termekek Gyara RT, priority 1972, dated 1976).
“And” between values parts separate entries of the source, which are not always exact repeats. Equal values may be shown once.

Key:
[1] = tested on: rats; test: Toxicity on rats after oral administration, 3 months (Table 2'); type: in vivo, rat; conditions: for Perished animals/total animals, Sum / Perished animals/total animals: male rats
Description: 10 animals were treated with the substance in question for 3 months. […] A dosage corresponding to 20 mg./kg. of Indomethacine was added during the first, that corresponding to 40 mg./kg. of Indomethacine during the second, and that corresponding to 60 mg./kg. of Indomethacine during the third month. The animals of the control group received suspending agent only.

[2] = tested on: kaolin oedema; test: Kaolin oedema test (Table 1); type: in vivo, rat; design: oedema, treated: unit not given here; conditions: female rats
Description: The experiments were performed on female rats weighing 110-130 g. divided into groups of 10 animals. The rats were starved for 24 hours prior to the experiment. The test substance was administered orally, the controls obtained the suspending solution without the active ingredient. 1 hour following drug administration the animals were injected s.c. 0.1 ml. of a suspension of 5% kaolin into the foot pad. During the following period the inflammatory reaction is manifested by a swelling of the foot. The diameter of the foot of the treated and control animals was measured 2, 3.5 and 5 hours after s.c. injection of kaolin. The efficiency of the test compound was calculated from the difference of the diameter of the foot in the treated and control animals. Significance was calculated with Student's t test and the effect of the drug was expressed also as per cent.

[3] = tested on: rats; test: Testing of ulcerogenic effect in rats (Table 5); type: in vivo, rat; conditions: 5 days
Description: Unstarved rats weighing 160-180 g. were used for the experiment. The animals were divided into groups of 20. The compounds were administered as 1% suspensions stabilized with methylcellulose, by the oral route, at a volume of 0.2 ml./100 g. Treatment was continued for 5 days (1 treatment/day), and was suspended on the 6th and 7th day. On the 8th experimental day the […] were killed by ether overdosage. After laparatomy the stomachs were removed, washed twice in water and thereafter dipped in formaline. An incision was made along the large curvature, then again rinced with water and spread on a PVC plate. The gastric mucosa is evaluated macroscopically by two methods:
1. The ulcer index was calculated. The animals were divided into groups on the ground of the diameter of the largest ulcer and the extent of the changes was scored as follows:
The number of animals in the individual groups was multiplied by the number of scores and the proucts of multiplications are added and the sum thus obtained is divided by the number of animals.
2. Ulcer counts were calculated. The number of ulcers was counted on each stomach and the total number of ulcers was divided by the number of animals. […] Changes found in the intestinates were evaluated as "all or naught" and expressed in per cent of the number of animals.

[4] = tested on: granuloma formation; test: Cotton pellet granuloma (Table 2); type: in vivo, rat; conditions: male rats, 7 days
Description: The experiments were performed on male rats weighing 140-160 g. In ether anaesthesia a […]. cotton pellet was placed in each of two subcutaneous pockets in the dorsal region of the animal. The drug was administered orally during a period of 7 days. The controls received a drugfree suspension. The doses seen in the Table were administered in two portions, in the morning and in the afternoon, respectively. On the 8th day the animals were killed and the pellets were dissected. After removal of fat and extraneous tissue, the pellets were dried for 5 hours at 50° C and weighed. The weight of the cotton pellet before implantation was subtracted from the weight of the dried, dissected pellet and drug efficiency was calculated from the obtained difference. Significance was calculated with Student's t test and drug effect was expressed as per cent.

[5] = tested on: mice; test: Toxicity on mice by oral administration, once daily for 7 days (Table 4); type: in vivo; conditions: male mice
Description: The experiments were performed on unstarved male mice of […]. body-weight.
The compound was administered in the form of 1% suspension stabilized with methylcellulose. […] The animals obtained the drug once daily over a period of 7 dyas, i.e. 168 hours. The number of deaths was registered each day. LD50 values were calculated according to Litchfield and Wilcoxon.

[6] = oral 13.7 mg./kg., 2 h after kaolin
[7] = oral 13.7 mg./kg., 3.5 h after kaolin
[8] = oral 13.7 mg./kg., 5 h after kaolin
[9] = oral 34 mg./kg., 2 h after kaolin
[10] = oral 34 mg./kg., 3.5 h after kaolin
[11] = oral 34 mg./kg., 5 h after kaolin
[12] = oral 51 mg./kg., 2 h after kaolin
[13] = oral 51 mg./kg., 3.5 h after kaolin
[14] = oral 51 mg./kg., 5 h after kaolin

COc1ccc2c(c1)c(CC(=O)OCC(Cl)(Cl)Cl)c(C)n2C(=O)c1ccc(Cl)cc1 [Example 5, 1-(p-chlorobenzoyl)-2-methyl-5-methoxy-indol-3-yl-acetic-acid trichloroethyl ester]
Perished animals/total animals, Sum ([1]; oral 27.3 mg./kg., 1st month): 1/10
Perished animals/total animals ([1]; oral 54.7 mg./kg., 2nd month): 1/9
Perished animals/total animals, Sum ([1]; oral 54.7 mg./kg., through 2nd month): 2/10
Perished animals/total animals ([1]; oral 80.0 mg./kg., 3rd month): 2/8
Perished animals/total animals, Sum ([1]; oral 80.0 mg./kg., through 3rd month): 4/10
toxicity compared with Indomethacine ([1]; rats (and mice), oral): far less toxic than Indomethacine not only on mice but also on rats
perishment during the observation period compared with Indomethacine ([1]; rats, oral, observation period): the same as for Indomethacine
Inhibition of kaolin oedema [2, 6]: 9.8% and 10.6%
oedema, treated [2, 6]: 2.39±0.36 and 2.28±0.50
Inhibition of kaolin oedema [2, 7]: 15.1% and 19.0%
oedema, treated [2, 7]: 2.54±0.53 and 2.35±0.54
Inhibition of kaolin oedema [2, 8]: 22.2% and 15.1%
oedema, treated [2, 8]: 2.56±0.53 and 2.77±0.58
Inhibition of kaolin oedema [2, 9]: 11.0% and 13.6%
oedema, treated [2, 9]: 2.27±0.30 and 2.46±0.49
Inhibition of kaolin oedema [2, 10]: 22.1%
oedema, treated [2, 10]: 2.26±0.30 and 2.47±0.41
Inhibition of kaolin oedema [2, 11]: 24.7% and 29.9%
oedema, treated [2, 11]: 2.48±0.36 and 2.72±0.62
Inhibition of kaolin oedema [2, 12]: 19.5%
oedema, treated [2, 12]: 1.86±0.32
Inhibition of kaolin oedema [2, 13]: 24.6%
oedema, treated [2, 13]: 2.05±0.30
Inhibition of kaolin oedema [2, 14]: 26.4%
oedema, treated [2, 14]: 2.23±0.28
Deaths ([3]; oral 27.3 mg./kg.): 1/20
Number of surviving animals ([3]; oral 27.3 mg./kg.): 19
Per cent of animals exhibiting changes of intest. mucosa ([3]; oral 27.3 mg./kg.): 10.5 Per cent
Ulcer number ([3]; oral 27.3 mg./kg.): 0
Deaths ([3]; oral 54.7 mg./kg.): 5/20
Number of surviving animals ([3]; oral 54.7 mg./kg.): 15
Per cent of animals exhibiting changes of intest. mucosa ([3]; oral 54.7 mg./kg.): 80 Per cent
Ulcer number ([3]; oral 54.7 mg./kg.): 0.27
Inhibition of granuloma formation ([4]; oral 5.5 mg./kg.): 19.5%
granuloma tissue, treated ([4]; oral 5.5 mg./kg.): 56.7±11.1
Inhibition of granuloma formation ([4]; oral 11 mg./kg.): 24.8%
granuloma tissue, treated ([4]; oral 11 mg./kg.): 52.0±17.8
Number of deaths/number of treated animals ([5]; oral 1000 mg/kg, 24 h): 0/10
Number of deaths/number of treated animals ([5]; oral 1000 mg/kg, 48 h): 0/10
Number of deaths/number of treated animals ([5]; oral 1000 mg/kg, 72 h): 0/10
Number of deaths/number of treated animals ([5]; oral 1000 mg/kg, 96 h): 0/10
Number of deaths/number of treated animals ([5]; oral 1000 mg/kg, 120 h): 0/10
Number of deaths/number of treated animals ([5]; oral 1000 mg/kg, 144 h): 0/10
Number of deaths/number of treated animals ([5]; oral 1000 mg/kg, 168 h): 0/10
Number of deaths/number of treated animals ([5]; oral 1500 mg/kg, 24 h): 0/10
Number of deaths/number of treated animals ([5]; oral 1500 mg/kg, 48 h): 0/10
Number of deaths/number of treated animals ([5]; oral 1500 mg/kg, 72 h): 0/10
Number of deaths/number of treated animals ([5]; oral 1500 mg/kg, 96 h): 0/10
Number of deaths/number of treated animals ([5]; oral 1500 mg/kg, 120 h): 0/10
Number of deaths/number of treated animals ([5]; oral 1500 mg/kg, 144 h): 0/10
Number of deaths/number of treated animals ([5]; oral 1500 mg/kg, 168 h): 0/10
Number of deaths/number of treated animals ([5]; oral 2000 mg/kg, 24 h): 0/10
Number of deaths/number of treated animals ([5]; oral 2000 mg/kg, 48 h): 0/10
Number of deaths/number of treated animals ([5]; oral 2000 mg/kg, 72 h): 2/10
Number of deaths/number of treated animals ([5]; oral 2000 mg/kg, 96 h): 2/10
Number of deaths/number of treated animals ([5]; oral 2000 mg/kg, 120 h): 4/10
Number of deaths/number of treated animals ([5]; oral 2000 mg/kg, 144 h): 6/10
Number of deaths/number of treated animals ([5]; oral 2000 mg/kg, 168 h): 6/10
Number of deaths/number of treated animals ([5]; oral 2500 mg/kg, 24 h): 0/10
Number of deaths/number of treated animals ([5]; oral 2500 mg/kg, 48 h): 1/10
Number of deaths/number of treated animals ([5]; oral 2500 mg/kg, 72 h): 1/10
Number of deaths/number of treated animals ([5]; oral 2500 mg/kg, 96 h): 3/10
Number of deaths/number of treated animals ([5]; oral 2500 mg/kg, 120 h): 4/10
Number of deaths/number of treated animals ([5]; oral 2500 mg/kg, 144 h): 6/10
Number of deaths/number of treated animals ([5]; oral 2500 mg/kg, 168 h): 7/10
Number of deaths/number of treated animals ([5]; oral 3000 mg/kg, 24 h): 0/10
Number of deaths/number of treated animals ([5]; oral 3000 mg/kg, 48 h): 1/10
Number of deaths/number of treated animals ([5]; oral 3000 mg/kg, 72 h): 3/10
Number of deaths/number of treated animals ([5]; oral 3000 mg/kg, 96 h): 4/10
Number of deaths/number of treated animals ([5]; oral 3000 mg/kg, 120 h): 5/10
Number of deaths/number of treated animals ([5]; oral 3000 mg/kg, 144 h): 7/10
Number of deaths/number of treated animals ([5]; oral 3000 mg/kg, 168 h): 7/10
